Several values for one entry are separate records, joined by “and”; a condition that tells them apart may be missing. Equal entries are not always repeated.
Tested on: TGR in newly transformed schistosomula (NTS)
Experiment: TGR inhibition in NTS with TRFS-Green fluorescent probe;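 note: untreated reference is NTS exposed to TRFS-Green probe alone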
Assay type: cell-based, S. mansoni
Details: NTS
Method: TGR inhibition in NTS was assessed using a fluorescent probe TRFS-Green (Medchemexpress)[43]. NTS prepared as previously described and cultured in M199 supplemented with 5.5 mM D-glucose, penicillin-streptomycin and 5% heat inactivated fetal bovine serum were incubated at 37 °C in a clear bottom flat well plate in a 5% CO2 incubator overnight. […] NTS were further treated with TRFS-Green (10 µM) for additional 4 h and rinsed with M199 medium to remove residual TRFS-Green. Fluorescence images were obtained using Keyence BZ-X800. The quantification of fluorescence intensity upon the uptake of TRFS-Green by NTS was performed by a fluorescent microplate imager (BioTek Cytation3) (excitation, 438 nm; emission, 538 nm) hourly for 5 h and after 24 h.

Row | SMILES | TGR inhibition visualized by TRFS-Green, Average (1hr, 5 µM) | TGR inhibition visualized by TRFS-Green, single replicate (1hr, 5 µM) | TGR inhibition visualized by TRFS-Green, Average (1hr, 15 µM) | TGR inhibition visualized by TRFS-Green, single replicate (1hr, 15 µM) | TGR inhibition visualized by TRFS-Green, Average (1hr, 30 µM) | TGR inhibition visualized by TRFS-Green, single replicate (1hr, 30 µM) | TGR inhibition visualized by TRFS-Green, Average (2hr, 5 µM) | TGR inhibition visualized by TRFS-Green, single replicate (2hr, 5 µM) | TGR inhibition visualized by TRFS-Green, Average (2hr, 15 µM) | TGR inhibition visualized by TRFS-Green, single replicate (2hr, 15 µM) | TGR inhibition visualized by TRFS-Green, Average (2hr, 30 µM) | TGR inhibition visualized by TRFS-Green, single replicate (2hr, 30 µM) | TGR inhibition visualized by TRFS-Green, Average (3hr, 5 µM) | TGR inhibition visualized by TRFS-Green, single replicate (3hr, 5 µM) | TGR inhibition visualized by TRFS-Green, Average (3hr, 15 µM) | TGR inhibition visualized by TRFS-Green, single replicate (3hr, 15 µM) | TGR inhibition visualized by TRFS-Green, Average (3hr, 30 µM) | TGR inhibition visualized by TRFS-Green, single replicate (3hr, 30 µM) | TGR inhibition visualized by TRFS-Green, Average (4hr, 5 µM) | TGR inhibition visualized by TRFS-Green, single replicate (4hr, 5 µM) | other results
1 | Cc1oc(-c2ccc3c(c2)OCO3)nc1CN[C@@H]1C[C@@H]2C[C@H]([C@H]1C)C2(C)C [C1 (8VP70)] | 10571.8 | 10560.7 and 10583 | 9457 | 9312 and 9602 | 9252.5 | 9204 and 9301 | 14162 | 14242 and 14082 | 13529 | 13095 and 13963 | 11887.5 | 11941 and 11834 | 23711 | 23581 and 23841 | 21817.5 | 21984 and 21651 | 16831 | 16892 and 16770 | 25462.5 | 25241 and 25684 | TGR inhibition visualized by TRFS-Green, Average (4hr, 15 µM): 21898; TGR inhibition visualized by TRFS-Green, single replicate (4hr, 15 µM): 21795 and 22001; TGR inhibition visualized by TRFS-Green, Average (4hr, 30 µM): 16836.5; TGR inhibition visualized by TRFS-Green, single replicate (4hr, 30 µM): 16939 and 16734; TGR inhibition visualized by TRFS-Green, Average (5hr, 5 µM): 26920; TGR inhibition visualized by TRFS-Green, single replicate (5hr, 5 µM): 26917 and 26923; TGR inhibition visualized by TRFS-Green, Average (5hr, 15 µM): 22092; TGR inhibition visualized by TRFS-Green, single replicate (5hr, 15 µM): 23039 and 21145; TGR inhibition visualized by TRFS-Green, Average (5hr, 30 µM): 16893.5; TGR inhibition visualized by TRFS-Green, single replicate (5hr, 30 µM): 16853 and 16934; TGR inhibition visualized by TRFS-Green, Average (24hr, 5 µM): 28552; TGR inhibition visualized by TRFS-Green, single replicate (24hr, 5 µM): 28103 and 29001; TGR inhibition visualized by TRFS-Green, Average (24hr, 15 µM): 23755.5; TGR inhibition visualized by TRFS-Green, single replicate (24hr, 15 µM): 23599 and 23912; TGR inhibition visualized by TRFS-Green, Average (24hr, 30 µM): 16807; TGR inhibition visualized by TRFS-Green, single replicate (24hr, 30 µM): 16780 and 16834
2 | CCc1ccccc1-c1nc(CN[C@@H]2C[C@@H]3C[C@H]([C@H]2C)C3(C)C)c(C)o1 [C2 (8VP101)] | 10460.5 | 10308 and 10613 | 10104 | 10086 and 10122 | 9753 | 9694 and 9812 | 13787 | 13840 and 13734 | 11633.5 | 11622 and 11645 | 11195 | 11148 and 11242 | 19344 | 19467 and 19221 | 14723.5 | 14460 and 14987 | 13932.5 | 14033 and 13832 | 23362.5 | 23074 and 23651 | TGR inhibition visualized by TRFS-Green, Average (4hr, 15 µM): 14824.5; TGR inhibition visualized by TRFS-Green, single replicate (4hr, 15 µM): 14826 and 14823; TGR inhibition visualized by TRFS-Green, Average (4hr, 30 µM): 13941.5; TGR inhibition visualized by TRFS-Green, single replicate (4hr, 30 µM): 13992 and 13891; TGR inhibition visualized by TRFS-Green, Average (5hr, 5 µM): 26593; TGR inhibition visualized by TRFS-Green, single replicate (5hr, 5 µM): 26274 and 26912; TGR inhibition visualized by TRFS-Green, Average (5hr, 15 µM): 16217; TGR inhibition visualized by TRFS-Green, single replicate (5hr, 15 µM): 16278 and 16156; TGR inhibition visualized by TRFS-Green, Average (5hr, 30 µM): 14810; TGR inhibition visualized by TRFS-Green, single replicate (5hr, 30 µM): 14697 and 14923; TGR inhibition visualized by TRFS-Green, Average (24hr, 5 µM): 29329.8; TGR inhibition visualized by TRFS-Green, single replicate (24hr, 5 µM): 29329.8; TGR inhibition visualized by TRFS-Green, Average (24hr, 15 µM): 17780.7; TGR inhibition visualized by TRFS-Green, single replicate (24hr, 15 µM): 17780.7; TGR inhibition visualized by TRFS-Green, Average (24hr, 30 µM): 15410.9; TGR inhibition visualized by TRFS-Green, single replicate (24hr, 30 µM): 15410.9
3 | Cc1oc(C2CCCCC2)nc1CN[C@@H]1C[C@@H]2C[C@H]([C@H]1C)C2(C)C [C4 (8VP121-1)] | 12224.5 | 12022 and 12427 | 11617.5 | 11812 and 11423 | 10356 | 10371 and 10341 | 19189 | 19355 and 19023 | 17814.5 | 17877 and 17752 | 13785 | 13959 and 13611 | 24561 | 24110 and 25012 | 22452 | 22972 and 21932 | 19172 | 19108 and 19236 | 26229 | 26469 and 25989 | TGR inhibition visualized by TRFS-Green, Average (4hr, 15 µM): 23381.5; TGR inhibition visualized by TRFS-Green, single replicate (4hr, 15 µM): 23782 and 22981; TGR inhibition visualized by TRFS-Green, Average (4hr, 30 µM): 19196; TGR inhibition visualized by TRFS-Green, single replicate (4hr, 30 µM): 19157 and 19235; TGR inhibition visualized by TRFS-Green, Average (5hr, 5 µM): 27106; TGR inhibition visualized by TRFS-Green, single replicate (5hr, 5 µM): 27097 and 27115; TGR inhibition visualized by TRFS-Green, Average (5hr, 15 µM): 23897.5; TGR inhibition visualized by TRFS-Green, single replicate (5hr, 15 µM): 23926 and 23869; TGR inhibition visualized by TRFS-Green, Average (5hr, 30 µM): 21898.5; TGR inhibition visualized by TRFS-Green, single replicate (5hr, 30 µM): 21774 and 22023; TGR inhibition visualized by TRFS-Green, Average (24hr, 5 µM): 29485; TGR inhibition visualized by TRFS-Green, single replicate (24hr, 5 µM): 29989 and 28981; TGR inhibition visualized by TRFS-Green, Average (24hr, 15 µM): 27619.5; TGR inhibition visualized by TRFS-Green, single replicate (24hr, 15 µM): 27128 and 28111; TGR inhibition visualized by TRFS-Green, Average (24hr, 30 µM): 25005.5; TGR inhibition visualized by TRFS-Green, single replicate (24hr, 30 µM): 25040 and 24971
4 | Cc1oc(C2CCCCC2)nc1C(=O)N[C@@H]1C[C@@H]2C[C@H]([C@H]1C)C2(C)C [C7 (8VP108)] | 12657 | 12650 and 12664 | 10865 | 11062 and 10668 | 10431.5 | 10627 and 10236 | 18963 | 19690 and 18236 | 17493 | 17993 and 16993 | 16380.5 | 16170 and 16591 | 32388.5 | 32805 and 31972 | 28933.5 | 28944 and 28923 | 28582 | 28060 and 29104 | 35273.5 | 35655 and 34892 | TGR inhibition visualized by TRFS-Green, Average (4hr, 15 µM): 29029; TGR inhibition visualized by TRFS-Green, single replicate (4hr, 15 µM): 29202 and 28856; TGR inhibition visualized by TRFS-Green, Average (4hr, 30 µM): 28478.5; TGR inhibition visualized by TRFS-Green, single replicate (4hr, 30 µM): 28833 and 28124; TGR inhibition visualized by TRFS-Green, Average (5hr, 5 µM): 39296; TGR inhibition visualized by TRFS-Green, single replicate (5hr, 5 µM): 39469 and 39123; TGR inhibition visualized by TRFS-Green, Average (5hr, 15 µM): 32855.5; TGR inhibition visualized by TRFS-Green, single replicate (5hr, 15 µM): 32828 and 32883; TGR inhibition visualized by TRFS-Green, Average (5hr, 30 µM): 29603; TGR inhibition visualized by TRFS-Green, single replicate (5hr, 30 µM): 29933 and 29273; TGR inhibition visualized by TRFS-Green, Average (24hr, 5 µM): 44285; TGR inhibition visualized by TRFS-Green, single replicate (24hr, 5 µM): 44288 and 44282; TGR inhibition visualized by TRFS-Green, Average (24hr, 15 µM): 35708; TGR inhibition visualized by TRFS-Green, single replicate (24hr, 15 µM): 35593 and 35823; TGR inhibition visualized by TRFS-Green, Average (24hr, 30 µM): 33705.5; TGR inhibition visualized by TRFS-Green, single replicate (24hr, 30 µM): 33980 and 33431
